Patent publication US10301287B2, “Solid forms of cenicriviroc mesylate and processes of making solid forms of cenicriviroc mesylate” (Tobira Therapeutics, Inc., priority 2016, dated 2019)

Tests used:
[1] = cited from earlier work
[2] = Particle size according to USP <429> (laser light diffraction); type: physicochemical
Method: In some embodiments, the particle size and the particle size distribution (e.g., D90, D50, and D10) of a compound of the invention is determined by the laser light diffraction particle size distribution analysis. The particle size distribution is determined in accordance with the Fraunhofer light diffraction method. In this method, a coherent laser beam passes through the sample and the resulting diffraction pattern is focused on a multi-element detector. Since the diffraction pattern depends, among other parameters, on particle size, the particle size distribution can be calculated based on the measured diffraction pattern of the sample. In one embodiment, the particle size and the particle size distribution is measured according to U.S. Pharmacopeia (USP) <429>.
Particle Size: The particle size of the Micronized CVC mesylate Form A and the non-micronized CVC mesylate Form A were determined according to USP <429> as shown in Table 5.

[3] = BET surface area by multipoint nitrogen adsorption; type: physicochemical
Method: Samples were analysed for BET (Brunauer-Emmett-Teller) surface area by a multipoint Nitrogen adsorption method (volumetric technique) using a Micromeritics TriStar 3020 instrument. The sample degassing was undertaken using a Micromeritics FlowPrep 060 applying flowing argon of 99.995% purity at a flow rate of approximately 20 cc/min for two hours at 20° C. Samples were degassed in their respective analysis tubes and transferred directly to the TriStar II immediately after the degassing period.

[4] = Flow properties, Revolution Powder Analyser; type: physicochemical; conditions: for Avalanche Angle / Avalanche Energy / Avalanche Time / Break Energy / Rest Angle: drum rotation speed 0.3 rpm; for Interpretation (flow): from rest angle, Table 10
Method: Flow Properties: The flow properties of the samples were analysed using a Revolution Powder Analyser. Approximately 100 ml of the sample is placed in a sample drum which has two borosilicate glass sides. A motor turns two high precision silicone rollers, which in turn rotate the drum. A digital camera with the assistance of cold cathode backlight illumination takes images of the powder during the rotation process. Using a drum rotation speed of 0.3 rpm the time to avalanche, avalanche angle, avalanche energy, break energy and rest angle are measured. The software calculates these properties by analysing the images produced as the drum is rotated. The results of these properties can be used to assess the flow of the bulk powder. The interpretation of the rest angle (angle of repose) are given in Table 10 (see USP method <1174>; see also, Carr, R. L. Evaluating Flow Properties of Solids. Chem Eng. 1965, 72, 163-168).

[5] = Tapped bulk density, compressibility (Carr's) index and Hausner ratio; type: physicochemical; parameters: Compressibility (Carr's) Index: scale not given here; conditions: for Interpretation (flow): from average compressibility index / Hausner ratio, Tables 7 and 8
Method: Tapped Bulk Density: Tapped bulk density analysis was performed by pouring powder that had been sieved through a 1 mm Retsch stainless steel test sieve into a clean, dry pre-weighed 50 ml measuring cylinder. Powder was added to a total volume of 45-50 ml without compacting the sample. The mass and the initial volume (V0) were recorded. The sample was tapped using a Copley JV2000 tapped density tester using the following number of taps: 10, 490, 750 and sets of 1250 taps up to a total of 10,000 taps (Table 6). The volume was recorded after each set of taps and the sample was tapped until it reached constant volume (Vf). For these samples the 10,000 tap volume was used as Vf. Each sample was analysed in duplicate and the tapped density, compressibility index (Carr's index) and Hausner ratios were calculated using the formulae given below. The results from the duplicate analysis were averaged and the average result was used to assess the flow properties of the sample, using the parameters given in Table 7 (see “The Science of Dosage Form Design”, ME Aulton, 1988) and Table 8 (see USP method <1174>; see also, Carr, R. L. Evaluating Flow Properties of Solids. Chem Eng. 1965, 72, 163-168). Tapped Bulk Density=M/Vf. [formula] [formula]

[6] = Intrinsic dissolution of compressed disc, Sirius T3; type: physicochemical; conditions: Britton-Robinson buffer, average pH 3.12 (Form A), room temperature, disc 7.07 mm^2
Method: In one embodiment, the extrapolated intrinsic dissolution rate is measured using dissolution disc having 7.07 mm^2 which was compressed under high pressure, ca. 100 kg, using a constructed die. In one embodiment, a Sirius T3 was used as the dissolution apparatus containing 20 mL of test media with stirring speed of the paddle set to −30%. In some embodiments, the dissolution was measured at room temperature. In one embodiment, dissolution was measured over 1 pH sector by ultraviolet (UV) spectrometry. In one embodiment, the UV spectra of the dissolution solution was collected over time, for example every 30 seconds, and converted to concentration using the molar extinction coefficient (MEC) by UV-metric titration. In one embodiment, the intrinsic dissolution rate was calculated by dividing the extrapolated dissolution rate by the surface area of the dissolution disc. In one embodiment, the dissolution media was Britton-Robinson buffer solution. In one embodiment, the dissolution media was pH 3.1 Britton-Robinson buffer solution. In one embodiment, the dissolution media was pH 3.2 Britton-Robinson buffer solution. In another embodiment, the dissolution media was pH 4.7 Britton-Robinson buffer solution.
Intrinsic Dissolution: Appropriate weight of the pure test compound material were used to fill the cavity of the dissolution disc and compressed under high pressure, ca. 100 kg, using a constructed die. No additives were added, avoiding any external interference in the intrinsic dissolution profile. The resulting non-disintegrating disc was transferred to the dissolution apparatus, Sirius T3, containing 20 ml of the test media at room temperature. The stirring speed of the paddle was set to −30%. Dissolution was then measured over 1 pH sector. The solution spectra was collected every 30 seconds over 120 collection points and converted to concentration using the molar extinction coefficient (MEC) by UV-metric titration. Intrinsic dissolution rate was calculated by dividing the extrapolated dissolution rate by the surface area of the disk (7.07 mm^2). All analysis was performed in duplicate, with XRPD both prior to and post dissolution analysis, where possible.
Dissolution media, Britton-Robinson buffer solutions, were prepared by adding a specified volume of sodium hydroxide (0.2 M) to 200 ml of a solution of mixed acid, of 0.04 M with respect to phosphoric acid (2.72 ml/l), acetic acid (2.30 ml/l) and boric acid (2.476 g/l). The amount of sodium hydroxide used to prepare each buffer is outlined below:
pH 3.2 Britton-Robinson buffer: 38 ml of sodium hydroxide.

[7] = Rep. 1, M/Vf, Vf = volume after 10,000 taps
[8] = Rep. 2, M/Vf, Vf = volume after 10,000 taps
[9] = listed as Form A Non-micronized

BET constant, C [3] | Surface area [3] [m^2/g] | Avalanche Angle [4] [deg] | Avalanche Energy [4] [kJ/kg] | Avalanche Time [4] [s] | Break Energy [4] [kJ/kg] | Rest Angle [4] [deg] | Interpretation (flow) [4] | Compressibility (Carr's) Index ([5]; Mean of duplicate) | Hausner Ratio ([5]; Mean of duplicate) | Tapped Bulk Density ([5]; Mean of duplicate) [g/mL] | Compressibility (Carr's) Index ([5]; Rep. 1) | Hausner Ratio ([5]; Rep. 1) | Tapped Bulk Density [5, 7] [g/mL] | Compressibility (Carr's) Index ([5]; Rep. 2) | Hausner Ratio ([5]; Rep. 2) | Tapped Bulk Density [5, 8] [g/mL] | Interpretation (flow) [5] | Extrapolated Dissolution Rate ([6]; Disc 1, 3.14 (Form C)) [µg/min] | Extrapolated Dissolution Rate ([6]; Disc 2, 3.15 (Form C)) [µg/min] | SMILES | further results
– | – | – | – | – | – | – | – | – | – | – | – | – | – | – | – | – | – | – | – | CCCCOCCOc1ccc(-c2ccc3c(c2)/C=C(/C(=O)Nc2ccc([S@@+]([O-])Cc4cncn4CCC)cc2)CCCN3CC(C)C)cc1 [Cenicriviroc, (S,E)-8-(4-(2-Butoxyethoxy)phenyl)-1-(2-methylpropyl)-N-(4-(((1-propyl-1H-imidazol-5-yl)methyl)sulfinyl)phenyl)-1,2,3,4-tetrahydrobenzo[b]azocine-5-carboxamide] | Water solubility [1]: poorly water-soluble
37.98 | 12.3614 ± 0.0440 | 68.05 | 32.98 | 7.4 | 86.41 | 44.85 | Passable (Passable - may hang up 41-45) | 28.6 | 1.4 | 0.2 | 27.55 | 1.42 | 0.16 | 29.59 | 1.40 | 0.16 | Poor (23-35) | 7.20 | 9.43 | CCCCOCCOc1ccc(-c2ccc3c(c2)/C=C(/C(=O)Nc2ccc([S@@+]([O-])Cc4cncn4CCC)cc2)CCCN3CC(C)C)cc1 [Form A Micronised] | Particle Size D10 ([2]; listed as Form A Micronized): 0.582 μm; Particle Size D50 ([2]; listed as Form A Micronized): 3.226 μm; Particle Size D90 ([2]; listed as Form A Micronized): 7.576 μm
39.87 | 2.3071 ± 0.0058 | 51.55 | 20.28 | 4.4 | 71.90 | 41.30 | Passable (Passable - may hang up 41-45) | 6.0 | 1.1 | 0.5 | 7.07 | 1.08 | 0.49 | 5.00 | 1.05 | 0.48 | Excellent (5-15) | 10.80 | 11.38 | CCCCOCCOc1ccc(-c2ccc3c(c2)/C=C(/C(=O)Nc2ccc([S+]([O-])Cc4cncn4CCC)cc2)CCCN3CC(C)C)cc1 (stereo not drawn) [Form C] | Density and flow compared with the Form A samples ([4]; Revolution Analyzer flowability measurements): more dense and flows better than the Form A samples

SMILES | BET constant, C [3] | Surface area [3] [m^2/g] | Avalanche Angle [4] [deg] | Avalanche Energy [4] [kJ/kg] | Avalanche Time [4] [s] | Break Energy [4] [kJ/kg] | Rest Angle [4] [deg] | Interpretation (flow) [4] | Compressibility (Carr's) Index ([5]; Mean of duplicate) | Hausner Ratio ([5]; Mean of duplicate) | Tapped Bulk Density ([5]; Mean of duplicate) [g/mL] | Compressibility (Carr's) Index ([5]; Rep. 1) | Hausner Ratio ([5]; Rep. 1) | Tapped Bulk Density [5, 7] [g/mL] | Compressibility (Carr's) Index ([5]; Rep. 2) | Hausner Ratio ([5]; Rep. 2) | Tapped Bulk Density [5, 8] [g/mL] | Interpretation (flow) [5] | Extrapolated Dissolution Rate ([6]; Disc 1, 3.14 (Form C)) [µg/min] | Extrapolated Dissolution Rate ([6]; Disc 2, 3.15 (Form C)) [µg/min] | further results
CCCCOCCOc1ccc(-c2ccc3c(c2)/C=C(/C(=O)Nc2ccc([S+]([O-])Cc4cncn4CCC)cc2)CCCN3CC(C)C)cc1 (stereo not drawn) [Form A Non-micronised] | 42.99 | 3.0295 ± 0.0122 | 72.60 | 41.58 | 6.5 | 138.38 | 50.75 | Poor (Poor - must agitate, vibrate 46-55) | 35.4 | 1.5 | 0.2 | 34.34 | 1.52 | 0.22 | 36.36 | 1.57 | 0.21 | Very Poor | – | – | Particle Size D10 [2, 9]: 4.725 μm; Particle Size D50 [2, 9]: 13.803 μm; Particle Size D90 [2, 9]: 65.910 μm
